The values below come from US8232308B2, “Methods for treating a disease in which Rho kinase is involved” (UBE Industries, Ltd., priority 2003, dated 2012).

SMILES strings stand for the structures. Where a name gives a salt, the structure may show the parent alone.

What is called Ki is a measure of affinity in units of concentration, obtained from inhibition or displacement. A low value points to tighter binding. As usually defined, the melting point is the temperature of the solid-liquid transition.

The target of the first data set is T1, activated ROCK II (Rattus norvegicus, UniProt Q62868).
T1 construct: purchased Upstate Biotechnology 14-338
T1 sequence (Q62868 11-550 limits assumed): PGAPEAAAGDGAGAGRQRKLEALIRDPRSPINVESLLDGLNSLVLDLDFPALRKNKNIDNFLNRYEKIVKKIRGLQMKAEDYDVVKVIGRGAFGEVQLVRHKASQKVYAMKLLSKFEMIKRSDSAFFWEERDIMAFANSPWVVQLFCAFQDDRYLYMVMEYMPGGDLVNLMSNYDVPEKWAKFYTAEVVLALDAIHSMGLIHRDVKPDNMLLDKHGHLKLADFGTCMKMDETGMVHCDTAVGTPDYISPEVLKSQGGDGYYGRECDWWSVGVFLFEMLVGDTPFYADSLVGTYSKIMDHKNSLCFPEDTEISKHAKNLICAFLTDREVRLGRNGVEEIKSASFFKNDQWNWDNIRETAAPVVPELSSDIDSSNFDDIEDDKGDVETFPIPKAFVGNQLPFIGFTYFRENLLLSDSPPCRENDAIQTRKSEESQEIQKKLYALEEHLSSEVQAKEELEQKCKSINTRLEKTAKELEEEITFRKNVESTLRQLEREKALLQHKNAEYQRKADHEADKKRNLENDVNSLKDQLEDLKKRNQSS
Put plainly: Test for Evaluation of Inhibiting Activity to Rho Kinase. The conditions noted are these: S6 Kinase Substrate Peptide, [γ-32P]ATP, 30° C. for 15 minutes, Ki=IC50/(1+S/Km). Type of data set: biochemical. Here is the method: In order to find the utility of the present invention compound, a Rho kinase inhibiting activity of the present invention compound was evaluated. The details thereof will be illustrated under the item of “Pharmacological Test (Test for Evaluation of Rho Kinase Inhibiting Activity)” in the Examples which will be mentioned later. The evaluation of the Rho kinase inhibiting activity of the present invention compound was carried out in accordance with the methods mentioned in J. Biol. Chem., 274, 32418 (1999) by Kaibuchi, et al. and mentioned in the instruction manual for use attached to the commercially available activated ROCK II [Upstate Biotechnology, Catalog No. 14-338 (5 units/50 μl)].
A. Test for Evaluation of Inhibiting Activity to Rho Kinase
In order to test the usefulness of the compounds of the present invention as a Rho kinase inhibitor, inhibiting activities of the compounds of the present invention to Rho kinase were evaluated and investigated in accordance with the methods of Kaibuchi, et al. mentioned in J. Biol. Chem., 274, 32418, 1999 and also with the methods mentioned in the instruction manual for use attached to commercially available activated ROCK II [Upstate Biotechnology, Catalog No. 14-338, (5 unite/50 μl)]. With regard to the test compounds, the compounds 5-1 to 5-73 (except the compounds 5-2, 5-9, 5-18, 5-37 and 5-38) were used.
A buffer was prepared so as to make tris(hydroxymethyl)aminomethane (Tris) (pH 7.5), 50 mM, ethyleneglycol bis(β-aminoethyl ether)-N,N,N′,N′-tetraacetic acid (EGTA), 2 mM, ethylenediaminetetraacetic acid (EDTA), 1 mM, magnesium chloride (MgCl2) 5 mM, β-glycerol phosphate, 5 mM, and dithiothreitol (DTT), 2 mM, by mixing them.
A mixed liquid of a 10 mM ATP solution with a commercially available [γ-^32P]ATP solution [NEN, Code No. NEG-002A] was diluted with the buffer to prepare a 300 μM ATP [γ-^32P]ATP solution.
A Commercially Available Activated ROCK II [Upstate Biotechnology, Catalog No. 14-338, (5 Units/50 μl)] was diluted to a concentration of 1/100 with the buffer to prepare an activated ROCK II solution.
A S6 Kinase Substrate Peptide [Upstate Biotechnology, Catalog No. 12-124,] (2 mg) was dissolved in distilled water to prepare a 1 mM substrate solution.
A test compound was dissolved in 10% aqueous dimethyl sulfoxide solution.
1) The test compound solution is placed in a microtube.
2) The 300 μM ATP [γ-^32P]ATP solution is added to the microtube followed by cooling to 4° C.
3) After that, a permanently activated ROCK II solution, 1 mM substrate solution and buffer are added to each microtube in that order, and the whole is mixed and cooled again at 4° C.
4) The microtube is placed in an incubator (30° C.) and the mixture is subjected to reaction for 15 minutes.
5) After cooling to 4° C., a 250 mM phosphoric acid solution (5 μl) is added to each microtube to stop the reaction.
6) The reaction solution (30 μl) is taken out from each microtube and spotted on a filter paper (Whatman P81) so that the reaction product (phosphorylated substrate) is adsorbed to the filter paper.
7) The filter paper is transferred to a beaker in which a 75 mM phosphoric acid solution is placed and shaken for 5 minutes so that unreacted [γ-^32P]AfP is washed out. The washing operation as such is carried out four times.
8) After that, the filter paper is dipped in ethanol to dehydrate and energy amount (radioactivity) of the reaction product adsorbed to the filter paper is measured with a liquid scintillation counter.
The IC50 value was calculated by an XL-fit (IDBS).
The Ki value is calculated by the following formula. S is an ATP concentration contained in the reaction solution while Km is a Michaelis-Menten constant. Ki=IC50/(1+S/Km)
As to `CC(C)(N)c1ccc(-c2ccc3[nH]ncc3c2)nc1` [Compound 5-3, 5-[5-(1-Amino-1-methylethyl)pyridin-2-yl]-1H-indazole trihydrochloride], the Ki was 20 nM.

In the case of `CCCOc1c(-c2ccc(C(C)(C)N)cc2)ccc2[nH]ncc12` [Compound 5-52, 5-[4-(1-Amino-1-methylethyl)phenyl]-4-n-propoxy-1H-indazole dihydrochloride], the Ki worked out at 14 nM.

`CNc1c(-c2ccc(C(C)(C)N)cc2)ccc2[nH]ncc12` [Compound 5-7, 5-[4-(1-Amino-1-methylethyl)phenyl]-4-methylamino-1H-indazole trihydrochloride]: the Ki amounted to 15 nM.

As for `CC(C)(N)c1ccc(-c2ccc3[nH]ncc3c2O)cc1` [Compound 5-48, 5-[4-(1-Amino-1-methylethyl)phenyl]-4-hydroxy-1H-indazole dihydrochloride], affinity was put at a Ki of 29 nM. Compared with the last compound, the Ki is about 1.9-fold higher.

As to `CN(C)c1c(-c2ccc(C(C)(C)N)cc2)ccc2[nH]ncc12` [Compound 5-16, 5-[4-(1-Amino-1-methylethyl)phenyl]-4-dimethylamino-1H-indazole trihydrochloride], the affinity corresponds to a Ki of 16 nM.

With `C=C(C)c1n[nH]c2ccc(-c3ccc(C(C)(C)N)cc3)cc12` [Compound 5-15, 5-[4-(1-Amino-1-methylethyl)phenyl]-3-(1-methyl-vinyl)-1H-indazole monotrifluoroacetate], the Ki was determined as 56 nM.

System in a further data set: not given
Assay: not given
Conditions: not given
As for `COc1c(-c2ccc(C3(N)CCCC3)cn2)ccc2[nH]ncc12` (as salt: hydrochloride) [Compound 5-46, 5-[5-(1-Aminocyclopentyl)pyridin-2-yl]-4-methoxy-1H-indazole trihydrochloride], the melting point is 195 to 203 °C (dec.).

As for `CC(C)(N)c1ccc(-c2ccc3[nH]nc(C#N)c3c2)cc1` (as salt: hydrochloride) [Compound 5-13, 5-[4-(1-Amino-1-methylethyl)phenyl]-3-cyano-1H-indazole dihydrochloride], the melting point was 224 to 227 °C (dec.).

Turning to `CC(C)(N)c1ccc(-c2ccc3[nH]ncc3c2-c2ccncc2)cc1` (as salt: hydrochloride) [Compound 5-61, 5-[4-(1-Amino-1-methylethyl)phenyl]-4-(pyridin-4-yl)-1H-indazole trihydrochloride], the melting point was 266 to 269 °C (dec.).

The compound `CC(C)(N)c1cnc(-c2ccc3[nH]ncc3c2)c(Cl)c1` (as salt: hydrochloride) [Compound 5-27, 5-[5-(1-Amino-1-methylethyl)-3-chloropyridin-2-yl]-1H-indazole trihydrochloride] came in with a melting point of 179 to 182 °C.

For the compound `CC(C)(N)c1ccc(-c2ccc3[nH]ncc3c2-c2ccccn2)cc1` (as salt: hydrochloride) [Compound 5-63, 5-[4-(1-Amino-1-methylethyl)phenyl]-4-(pyridin-2-yl)-1H-indazole trihydrochloride], the melting point was 210 to 214 °C (dec.).

For `CC(C)Oc1c(-c2ccc(C(C)(C)N)cc2)ccc2[nH]ncc12` (as salt: hydrochloride) [Compound 5-40, 5-[4-(1-Amino-1-methylethyl)phenyl]-4-isopropoxy-1H-indazole dihydrochloride], the melting point is 242 to 246 °C (dec.).

`CC(C)(N)c1ccc(-c2ccc3[nH]ncc3c2-c2cnco2)cc1` (as salt: hydrochloride) [Compound 5-66, 5-[4-(1-Amino-1-methylethyl)phenyl]-4-(oxazol-5-yl)-1H-indazole dihydrochloride]: the melting point is 212 to 214 °C (dec.).

`CCCOc1c(-c2ccc(C(C)(C)N)cn2)ccc2[nH]ncc12` (as salt: hydrochloride) [Compound 5-58, 5-[5-(1-Amino-1-methylethyl)pyridin-2-yl]-4-n-propoxy-1H-indazole trihydrochloride]: the melting point is 194 to 198 °C (dec.).

In the case of `CC(C)(N)c1ccc(-c2ccc3[nH]ncc3c2O)nc1` (as salt: hydrochloride) [Compound 5-69, 5-[5-(1-Amino-1-methylethyl)pyridin-2-yl]-4-hydroxy-1H-indazole trihydrochloride], the melting point is 255 to 260 °C (dec.).

`CN(C)c1c(-c2ccc(C3(N)CCCC3)cc2)ccc2[nH]ncc12` (as salt: hydrochloride) [Compound 5-24, 5-[4-(1-Aminocyclopentyl)phenyl]-4-dimethylamino-1H-indazole trihydrochloride]: the melting point is 175 to 178 °C (dec.).

On to `CC(C)(N)c1ccc(-c2ccc3[nH]ncc3c2N2CCOCC2)cc1` (as salt: hydrochloride) [Compound 5-43, 5-[4-(1-Amino-1-methylethyl)phenyl]-4-(morpholin-4-yl)-1H-indazole trihydrochloride], for which the melting point is 268 to 272 °C (dec.).

As for `CC(C)(N)c1ccc(-c2ccc3[nH]ncc3c2-c2ccno2)cc1` (as salt: hydrochloride) [Compound 5-68, 5-[4-(1-Amino-1-methylethyl)phenyl]-4-(isoxazol-5-yl)-1H-indazole dihydrochloride], the melting point is 256 to 258 °C (dec.).

With `CCCCOc1c(-c2ccc(C(C)(C)N)cc2)ccc2[nH]ncc12` (as salt: hydrochloride) [Compound 5-55, 5-[4-(1-Amino-1-methylethyl)phenyl]-4-n-butoxy-1H-indazole dihydrochloride], the melting point was 227 to 229 °C (dec.).

With `CC(N)c1ccc(-c2ccc3[nH]ncc3c2N(C)C)cc1` (centres unmarked) (as salt: hydrochloride) [Compound 5-26, 5-[4-(1-Aminoethyl)phenyl]-4-dimethylamino-1H-indazole trihydrochloride], the melting point was 180 to 182 °C (dec.).

Regarding `CC(C)(N)c1ccc(-c2ccc3[nH]ncc3c2-c2cn[nH]c2)cc1` (as salt: hydrochloride) [Compound 5-64, 5-[4-(1-Amino-1-methylethyl)phenyl]-4-(pyrazol-4-yl)-1H-indazole trihydrochloride], the melting point was 259 to 267 °C (dec.).

For `CNc1c(-c2ccc(C(C)(C)N)cc2)ccc2[nH]ncc12` (as salt: hydrochloride) [Compound 5-7, 5-[4-(1-Amino-1-methylethyl)phenyl]-4-methylamino-1H-indazole trihydrochloride], the melting point is 202 to 206 °C (dec.).

In the case of `CC(C)(N)c1ccc(-c2ccc3[nH]ncc3c2[N+](=O)[O-])cc1` (as salt: hydrochloride) [Compound 5-4, 5-[4-(1-Amino-1-methylethyl)phenyl]-4-nitro-1H-indazole monohydrochloride], the melting point is 255 to 261 °C (dec.).

Regarding `COC(=O)c1n[nH]c2ccc(-c3ccc(C(C)(C)N)cc3)cc12` (as salt: hydrochloride) [Compound 5-8, 5-[4-(1-Amino-1-methylethyl)phenyl]-3-methoxy-carbonyl-1H-indazole dihydrochloride], the melting point was 264 to 267 °C (dec.).

Regarding `CC(C)(N)c1ccc(-c2ccc3[nH]nc(N)c3c2)cc1` (as salt: hydrochloride) [Compound 5-11, 3-Amino-5-[4-(1-amino-1-methylethyl)phenyl]-1H-indazole trihydrochloride], the melting point is 220 to 222 °C (dec.).

Take `CC(C)(N)c1ccc(-c2ccc3[nH]ncc3c2N)cc1` (as salt: hydrochloride) [Compound 5-5, 4-Amino-5-[4-(1-amino-1-methylethyl)phenyl]-1H-indazole trihydrochloride]: the melting point was 228 to 235 °C (dec.).
